According to ChEMBL document CHEMBL4627293, “Synthesis and in vitro activity of asymmetric indole-based bisamidine compounds against Gram-positive and Gram-negative pathogens” (2020):
≈ marks a conversion by molar mass, not a printed value.

Legend:
Assay type in all cases: functional
Staphylococcus aureus [1] = test: Antimicrobial activity against methicillin-sensitive Staphylococcus aureus ATCC 29213
[2] = test system: Acinetobacter calcoaceticus; test: Antimicrobial activity against Acinetobacter calcoaceticus ATCC 19606
Citrobacter freundii = test: Antimicrobial activity against Citrobacter freundii ATCC 43864
Enterococcus faecalis [3] = test: Antimicrobial activity against Vancomycin-resistant Enterococcus faecalis ATCC 51299
Providencia rettgeri = test: Antimicrobial activity against Providencia rettgeri ATCC 31052
Klebsiella pneumoniae [4] = test: Antimicrobial activity against Klebsiella pneumoniae 7
[5] = test system: Staphylococcus epidermidis; test: Antimicrobial activity against methicillin-susceptible Staphylococcus epidermidis ATCC 12228
Klebsiella pneumoniae [6] = test: Antimicrobial activity against ESBL-producing Klebsiella pneumoniae ATCC 700603
Enterococcus faecalis [7] = test: Antimicrobial activity against Vancomycin-sensitive Enterococcus faecalis ATCC 29212
Escherichia coli = test: Antimicrobial activity against Escherichia coli ATCC 25922
Pseudomonas aeruginosa = test: Antimicrobial activity against Pseudomonas aeruginosa ATCC 27853
Enterococcus faecium = test: Antimicrobial activity against vancomycin-resistant Enterococcus faecium ATCC 700221
Proteus vulgaris = test: Antimicrobial activity against Proteus vulgaris ATCC 29905
Klebsiella pneumoniae [8] = test: Antimicrobial activity against NDM-1 producing Klebsiella pneumoniae ATCC BAA-2146
Staphylococcus aureus [9] = test: Antimicrobial activity against methicillin- resistant Staphylococcus aureus ATCC 33591
Klebsiella aerogenes = test: Antimicrobial activity against Enterobacter aerogenes ATCC 45102

SMILES	MIC (Staphylococcus aureus [1])	MIC [2]	MIC (Citrobacter freundii)	MIC (Enterococcus faecalis [3])	MIC (Providencia rettgeri)	MIC (Klebsiella pneumoniae [4])	MIC [5]	MIC (Klebsiella pneumoniae [6])	MIC (Enterococcus faecalis [7])	MIC (Escherichia coli)	MIC (Pseudomonas aeruginosa)	MIC (Enterococcus faecium)	MIC (Proteus vulgaris)	MIC (Klebsiella pneumoniae [8])	MIC (Staphylococcus aureus [9])	MIC (Klebsiella aerogenes)
CN(C)C(=N)c1ccc2cc(-c3ccc(Oc4ccc(-c5cc6ccc(C(=N)N(C)C)cc6[nH]5)cc4)cc3)[nH]c2c1	0.25 µg/mL (≈ 0.462 µM)	> 128 µg/mL	8 µg/mL (≈ 14.8 µM)	1 µg/mL (≈ 1.85 µM)	8 µg/mL (≈ 14.8 µM)	8 µg/mL (≈ 14.8 µM)	0.125 µg/mL (≈ 0.231 µM)	8 µg/mL (≈ 14.8 µM)	0.5 µg/mL (≈ 0.925 µM)	4 µg/mL (≈ 7.4 µM)	128 µg/mL (≈ 237 µM)	2 µg/mL (≈ 3.7 µM)	8 µg/mL (≈ 14.8 µM)	8 µg/mL (≈ 14.8 µM)	0.25 µg/mL (≈ 0.462 µM)	–
CNC(=N)c1ccc2cc(-c3ccc(Oc4ccc(-c5cc6ccc(C(=N)NC)cc6[nH]5)cc4)cc3)[nH]c2c1	1 µg/mL (≈ 1.95 µM)	–	> 128 µg/mL	1 µg/mL (≈ 1.95 µM)	> 128 µg/mL	–	–	> 128 µg/mL	1 µg/mL (≈ 1.95 µM)	128 µg/mL (≈ 250 µM)	> 128 µg/mL	–	> 128 µg/mL	> 128 µg/mL	1 µg/mL (≈ 1.95 µM)	> 128 µg/mL
CNC(=N)c1ccc2cc(-c3ccc(Oc4ccc(-c5cc6ccc(C(=N)NC)cc6[nH]5)c(C(F)(F)F)c4)cc3)[nH]c2c1	0.5 µg/mL (≈ 0.861 µM)	32 µg/mL (≈ 55.1 µM)	8 µg/mL (≈ 13.8 µM)	1 µg/mL (≈ 1.72 µM)	32 µg/mL (≈ 55.1 µM)	8 µg/mL (≈ 13.8 µM)	0.25 µg/mL (≈ 0.431 µM)	16 µg/mL (≈ 27.6 µM)	0.5 µg/mL (≈ 0.861 µM)	4 µg/mL (≈ 6.89 µM)	64 µg/mL (≈ 110 µM)	0.5 µg/mL (≈ 0.861 µM)	16 µg/mL (≈ 27.6 µM)	8 µg/mL (≈ 13.8 µM)	0.5 µg/mL (≈ 0.861 µM)	–
CC(C)NC(=N)c1ccc2cc(-c3ccc(Oc4ccc(-c5cc6ccc(C(=N)NC(C)C)cc6[nH]5)nc4)cc3)[nH]c2c1	0.25 µg/mL (≈ 0.439 µM)	16 µg/mL (≈ 28.1 µM)	4 µg/mL (≈ 7.02 µM)	0.5 µg/mL (≈ 0.878 µM)	4 µg/mL (≈ 7.02 µM)	8 µg/mL (≈ 14 µM)	0.125 µg/mL (≈ 0.219 µM)	8 µg/mL (≈ 14 µM)	0.25 µg/mL (≈ 0.439 µM)	2 µg/mL (≈ 3.51 µM)	64 µg/mL (≈ 112 µM)	0.25 µg/mL (≈ 0.439 µM)	8 µg/mL (≈ 14 µM)	8 µg/mL (≈ 14 µM)	0.125 µg/mL (≈ 0.219 µM)	–
CNC(=N)c1ccc2cc(-c3ccc(Oc4ccc(-c5cc6ccc(C(=N)NC)cc6[nH]5)c(OC)c4)cc3)[nH]c2c1	1 µg/mL (≈ 1.84 µM)	> 128 µg/mL	32 µg/mL (≈ 59 µM)	0.5 µg/mL (≈ 0.921 µM)	> 128 µg/mL	64 µg/mL (≈ 118 µM)	0.25 µg/mL (≈ 0.461 µM)	128 µg/mL (≈ 236 µM)	0.5 µg/mL (≈ 0.921 µM)	16 µg/mL (≈ 29.5 µM)	> 128 µg/mL	1 µg/mL (≈ 1.84 µM)	128 µg/mL (≈ 236 µM)	32 µg/mL (≈ 59 µM)	1 µg/mL (≈ 1.84 µM)	–
CNC(=N)c1ccc2cc(-c3ccc(Oc4ccc(-c5cc6ccc(C(=N)NC)cc6[nH]5)c(Cl)c4)cc3)[nH]c2c1	4 µg/mL (≈ 7.31 µM)	128 µg/mL (≈ 234 µM)	64 µg/mL (≈ 117 µM)	16 µg/mL (≈ 29.2 µM)	128 µg/mL (≈ 234 µM)	64 µg/mL (≈ 117 µM)	2 µg/mL (≈ 3.66 µM)	64 µg/mL (≈ 117 µM)	16 µg/mL (≈ 29.2 µM)	64 µg/mL (≈ 117 µM)	128 µg/mL (≈ 234 µM)	8 µg/mL (≈ 14.6 µM)	64 µg/mL (≈ 117 µM)	64 µg/mL (≈ 117 µM)	4 µg/mL (≈ 7.31 µM)	–
CN(C)C(=N)c1ccc2cc(-c3ccc(Oc4ccc(-c5cc6ccc(C(=N)N(C)C)cc6[nH]5)c(C(F)(F)F)c4)cn3)[nH]c2c1	1 µg/mL (≈ 1.64 µM)	> 128 µg/mL	16 µg/mL (≈ 26.2 µM)	2 µg/mL (≈ 3.28 µM)	128 µg/mL (≈ 210 µM)	32 µg/mL (≈ 52.5 µM)	0.5 µg/mL (≈ 0.82 µM)	32 µg/mL (≈ 52.5 µM)	2 µg/mL (≈ 3.28 µM)	8 µg/mL (≈ 13.1 µM)	> 128 µg/mL	1 µg/mL (≈ 1.64 µM)	32 µg/mL (≈ 52.5 µM)	32 µg/mL (≈ 52.5 µM)	0.5 µg/mL (≈ 0.82 µM)	–
CC(C)NC(=N)c1ccc2cc(-c3ccc(Oc4ccc(-c5cc6ccc(C(=N)NC(C)C)cc6[nH]5)cn4)cc3)[nH]c2c1	0.25 µg/mL (≈ 0.439 µM)	64 µg/mL (≈ 112 µM)	8 µg/mL (≈ 14 µM)	1 µg/mL (≈ 1.76 µM)	16 µg/mL (≈ 28.1 µM)	8 µg/mL (≈ 14 µM)	0.25 µg/mL (≈ 0.439 µM)	8 µg/mL (≈ 14 µM)	1 µg/mL (≈ 1.76 µM)	4 µg/mL (≈ 7.02 µM)	32 µg/mL (≈ 56.2 µM)	0.25 µg/mL (≈ 0.439 µM)	16 µg/mL (≈ 28.1 µM)	16 µg/mL (≈ 28.1 µM)	0.25 µg/mL (≈ 0.439 µM)	–
CC(C)NC(=N)c1ccc2cc(-c3ccc(Oc4ccc(-c5cc6ccc(C(=N)NC(C)C)cc6[nH]5)c(Cl)c4)cc3)[nH]c2c1	8 µg/mL (≈ 13.3 µM)	> 128 µg/mL	> 128 µg/mL	16 µg/mL (≈ 26.5 µM)	> 128 µg/mL	> 128 µg/mL	1 µg/mL (≈ 1.66 µM)	> 128 µg/mL	16 µg/mL (≈ 26.5 µM)	128 µg/mL (≈ 212 µM)	> 128 µg/mL	8 µg/mL (≈ 13.3 µM)	> 128 µg/mL	> 128 µg/mL	8 µg/mL (≈ 13.3 µM)	–
CN(C)C(=N)c1ccc2cc(-c3ccc(Oc4ccc(-c5cc6ccc(C(=N)N(C)C)cc6[nH]5)c(C(F)(F)F)c4)cc3)[nH]c2c1	2 µg/mL (≈ 3.29 µM)	> 128 µg/mL	64 µg/mL (≈ 105 µM)	8 µg/mL (≈ 13.1 µM)	> 128 µg/mL	> 128 µg/mL	2 µg/mL (≈ 3.29 µM)	> 128 µg/mL	8 µg/mL (≈ 13.1 µM)	64 µg/mL (≈ 105 µM)	> 128 µg/mL	8 µg/mL (≈ 13.1 µM)	128 µg/mL (≈ 210 µM)	> 128 µg/mL	2 µg/mL (≈ 3.29 µM)	–
